Measured values reported in patent publication US20250092065A1, “2-(INDAZOL-5-YL)-6-(PIPERIDIN-4-YL)-1,7-NAPHTHYRIDINE DERIVATIVES AND RELATED COMPOUNDS AS MODULATORS FOR SPLICING NUCLEIC ACIDS AND FOR THE TREATMENT OF PROLIFERATIVE DISEASES” (REMIX THERAPEUTICS INC., priority 2022, published 2025).
pIC50: −log10 of the molar value. Read-outs that look alike come from different tables or passages of the source.

How the values were obtained:
Assay type in all cases: cell-based, human
HTT mRNA = assay: RT-qPCR splicing assay, HTT mRNA canonical (CJ) and alternative (AJ) junction; conditions: Homo sapiens; for AC50: HTT alternative junction mRNA, read-out: HTT AJ (increase in AJ mRNA, AC50)
Procedure, shortened: (§1)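 Both isoforms, CJ and AJ, read by qPCR from crude lysates of treated A673 or K562 cells; 24 h, 37 °C, maximum 10 uM. Normalization: housekeeper ΔCt, then DMSO ΔΔCt.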

MYB mRNA = assay: RT-qPCR splicing assay, MYB mRNA canonical (CJ) and alternative (AJ) junction; conditions: Homo sapiens; for AC50: MYB alternative junction mRNA, read-out: MYB AJ (increase in AJ mRNA, AC50)
Procedure, shortened: as §1

SMN2 mRNA = assay: RT-qPCR splicing assay, SMN2 mRNA; conditions: Homo sapiens, canonical junction qPCR panel, Table 4; read-out: SMN2 IC50 (decrease in CJ mRNA levels)
Procedure, shortened: as §1

[1] = HTT canonical junction mRNA, RT-qPCR, read-out: HTT CJ (decrease in CJ mRNA levels, IC50)
[2] = canonical junction qPCR panel, Table 4, read-out: HTT IC50 (decrease in CJ mRNA levels)
[3] = MYB canonical junction mRNA, RT-qPCR, read-out: MYB CJ (decrease in CJ mRNA levels, IC50)
[4] = canonical junction qPCR panel, Table 4, read-out: MYB IC50 (decrease in CJ mRNA levels)

Compound	AC50 (HTT mRNA; RT-qPCR)	pIC50 (HTT mRNA; [1])	pIC50 (HTT mRNA; [2])	AC50 (MYB mRNA; RT-qPCR)	pIC50 (MYB mRNA; [3])	pIC50 (MYB mRNA; [4])	pIC50 (SMN2 mRNA)
CN[C@@H]1CCN(c2ccc3nc(-c4cc(C#N)c5nc(C)cn5c4)ncc3n2)C1 [Compound 407, 2-methyl-6-{6-[(3R)-3-(methylamino)pyrrolidin-1-yl]pyrido[3,2-d]pyrimidin-2-yl}imidazo[1,2-a]pyridine-8-carbonitrile]	1000 to 10000 nM	6.00 to 7.00	6.00 to 7.00	100 to 1000 nM	6.00 to 7.00	6.00 to 7.00	> 7.00
Cc1nc2cc(O)c(-c3ccc4nc(N5CCNCC5)ccc4n3)cc2o1 [Compound 408, 2-methyl-6-[6-(piperazin-1-yl)-1,5-naphthyridin-2-yl]-1,3-benzoxazol-5-ol]	1000 to 10000 nM	6.00 to 7.00	6.00 to 7.00	100 to 1000 nM	6.00 to 7.00	6.00 to 7.00	> 7.00
Cc1nc2cc(O)c(-c3ccc4nc(N5CCN[C@@H](C)C5)ccc4n3)cc2o1 [Compound 409]	100 to 1000 nM	6.00 to 7.00	6.00 to 7.00	100 to 1000 nM	6.00 to 7.00	6.00 to 7.00	> 7.00
Cc1nc2cc(O)c(-c3ccc4nc(N5CCN6CCCC6C5)ccc4n3)cc2o1 (stereo not shown) [Compound 410]	100 to 1000 nM	6.00 to 7.00	6.00 to 7.00	100 to 1000 nM	6.00 to 7.00	6.00 to 7.00	> 7.00
Cc1nc2cc(O)c(-c3ccc4nc(N5CCNC6(CC6)C5)ccc4n3)cc2o1 [Compound 411]	> 10000 nM	5.00 to 6.00	5.00 to 6.00	100 to 1000 nM	6.00 to 7.00	6.00 to 7.00	> 7.00
Cc1nc2cc(O)c(-c3ccc4nc(N5CCC(NC(C)(C)C)CC5)ccc4n3)cc2o1 [Compound 412]	100 to 1000 nM	6.00 to 7.00	6.00 to 7.00	100 to 1000 nM	6.00 to 7.00	6.00 to 7.00	6.00 to 7.00
Cc1nc2cc(O)c(-c3ccc4nc(N5CC[C@@H](NC(C)(C)C)C5)ncc4n3)cc2o1 [Compound 413, 6-{2-[(3R)-3-(tert-butylamino)pyrrolidin-1-yl]pyrido[3,2-d]pyrimidin-6-yl}-2-methyl-1,3-benzoxazol-5-ol]	< 100 nM	> 7.00	> 7.00	< 100 nM	> 7.00	> 7.00	> 7.00
Cc1nc2cc(O)c(-c3ccc4nc(N5CC[C@H](NC(C)(C)C)C5)ncc4n3)cc2o1 [Compound 414, 6-{2-[(3S)-3-(tert-butylamino)pyrrolidin-1-yl]pyrido[3,2-d]pyrimidin-6-yl}-2-methyl-1,3-benzoxazol-5-ol]	100 to 1000 nM	> 7.00	> 7.00	1000 to 10000 nM	5.00 to 6.00	5.00 to 6.00	6.00 to 7.00
Cc1nc2c(C)c(O)c(-c3ccc4nc(N5CC[C@H](NC(C)C)C5)ncc4n3)cc2o1 [Compound 416, 6-{2-[(3S)-3-(isopropylamino)pyrrolidin-1-yl]pyrido[3,2-d]pyrimidin-6-yl}-2,4-dimethyl-1,3-benzoxazol-5-ol]	< 100 nM	> 7.00	> 7.00	< 100 nM	> 7.00	> 7.00	> 7.00
Cc1nc2cc(O)c(-c3ccc4cc(N5CC[C@@H](NC(C)(C)C)C5)ncc4n3)cc2o1 [Compound 417]	1000 to 10000 nM	6.00 to 7.00	6.00 to 7.00	100 to 1000 nM	6.00 to 7.00	6.00 to 7.00	> 7.00
Cc1nc2cc(O)c(-c3ccc4nc(N5CCN[C@@H](C6CC6)C5)ccc4n3)cc2o1 [Compound 418]	100 to 1000 nM	6.00 to 7.00	6.00 to 7.00	100 to 1000 nM	6.00 to 7.00	6.00 to 7.00	6.00 to 7.00
Cc1nc2cc(O)c(-c3ccc4nc(N5C[C@@H](C)N[C@@H](C6CC6)C5)ccc4n3)cc2o1 [Compound 419]	100 to 1000 nM	6.00 to 7.00	6.00 to 7.00	100 to 1000 nM	6.00 to 7.00	6.00 to 7.00	> 7.00
Cc1nc2cc(O)c(-c3ccc4nc(N5C[C@@H](C)N[C@@H](C)C5)ccc4n3)cc2o1 [Compound 420]	1000 to 10000 nM	6.00 to 7.00	6.00 to 7.00	100 to 1000 nM	6.00 to 7.00	6.00 to 7.00	> 7.00
